Assay results: US10226460B2, “Pharmaceutically acceptable salts of pirlindole enantiomers for use in medicine” (TECNIMEDE SOCIEDADE TECNICO-MEDICINAL S.A., priority 2014, dated 2019)

Assay: Solubility test, classical saturation shake-flask method in 0.1N HCl
Format: physicochemical
Experimental: The Solubility test performed for showing the present invention's advantages is well known in the state of the art and is based on the “Classical saturation shake-flask method”, which comprises: Agitation at 37° C. during 15 h of supersaturated solution of the solid in HCl (aq) 0.1N, followed by filtration, dilution with water and quantification by UV measurement at 267 nm wavelength.

In the case of `Cc1ccc2c(c1)c1c3n2CCNC3CCC1.Cl` (racemic) [(rac)-pirlindole•HCl, 2,3,3a,4,5,6-hexahydro-1H-8-methyl-pyrazine [3,2,1-j,k]carbazole], the “Solubility category in 0.1 N HCl” value is reported as “slightly soluble”.
